How the values were obtained:
target cell = type: cell-based; details: for transduction efficiency of a target cell, single enhancer (result in words): Amphotericin B 0.5-1 μg/mL, Silibinin 1 to 5 μM, Midostaurin 100 to 400 nM, Nystatin 100 μM, Natamycin 3 μM, Everolimus 1 μM, deoxyribonucleosides 0.3-2.5 mM, PEG-PLA-PEG 10 μg/mL, PEG-PCL-PEG 10 μg/mL, Resveratrol 5 μM, Prostaglandin E2 10 μM, Poloxamer synperonic F108 0.5-2 mg/mL, DMSO 1% (v/v), protamine salts 4 μg/mL; for suitability of approved therapeutic compounds as transduction enhancers (result in words): no concentration stated
Excerpt: The efficiency of a transduction experiment may be determined as known in the art. Preferably, transduction efficiency may be measured by determining the vector copy number (VCN) in a single cell after a transduction experiment or by measuring the average VCN in a population of cells after a transduction experiment. “Vector copy number” or “VCN” refers to the number of copies of a vector, or portion thereof, in a cell's genome. The average VCN may be determined from a population of cells or from individual cell colonies. Exemplary methods for determining VCN include any form of polymerase chain reaction (PCR), such as qPCR or digital droplet PCR, and flow cytometry. […] 479-487 or as described in Examples 1 or 5.
Several transduction enhancers and combinations of transduction enhancers reported herein result in an increase in transduction efficiency. An “increase in transduction efficiency” refers to an increase in VCN upon transduction of a cell population by a gene therapy vector in presence of a transduction enhancer compared to the absence of a transduction enhancer.

human CD34-positive HSC = experiment: Lentiviral SIN vector transduction of CD34-positive HSC at MOI 1, 3 or 5 in X-Vivo 20, VCN by qPCR (Example 1); details: each with 4 μg/mL protamine sulfate, VCN with protamine sulfate only set as 1, 1 μg/mL Amphotericin B, 1 mg/ml Lentiboost
Excerpt: This vector encodes human p47phox cDNA under control of the miR223 internal promoter. Cells were transduced in presence of protamine sulfate only (resulting VCN set to 100%), or in presence of protamine sulfate (PS) plus one or more compounds tested for transduction enhancer activity. After 10 to 12 days post transduction, DNA from transduced cells was isolated, and VCNs were quantified by qPCR. The increase in VCN relative to the VCN achieved upon transduction in presence of protamine sulfate only was expressed as “fold induction rel. to PS”.
Thawed cells from healthy donors were cultured in 96 well plates comprising X-Vivo 20 medium supplemented with 1% human serum albumin, 300 μg/ml stem cell factor (SCF), 300 μg/ml fins like tyrosine kinase 3 (FLT-3) ligand (Flt3-lig) and 100 μng/ml Thrombopoietin (TPO) at a density of 0.5 E6 cells/cm^2, and at a concentration of 1E6 cells/ml for 22h, optionally followed by 2h of pre-stimulation with below mentioned compounds. Afterwards, cells were incubated for transduction with the lentiviral SIN gene therapy vector for 12 h in presence of the compounds indicated below and protamine sulfate. After the 12 h transduction period, the medium was exchanged by above mentioned medium, and cells were transferred to 12-well plates in which they were cultured in a volume of 1 ml for 5 to 7 days depending on cell density. Thereafter, medium was exchanged by fresh medium, and cells were cultured in 2 ml for another 6 days. At day 12 post transduction, DNA was isolated, and vector copy number (VCN) was quantified by qPCR. All experiments were conducted in triplicates. For negative control, a triplicate of non-transduced cells was cultured as described. To determine the baseline of transduction efficacy in presence of only protamine sulfate, cells were incubated with MOI 1, MOI 3 or MOI 5 of the lentiviral SIN vector in presence of 4 μg/mL protamine sulfate.
After 10 to 12 days, non-integrated pro-viral DNA was diluted out due to the proliferation of cells in the plate and VCNs were quantified thereafter by qPCR. Every condition was tested in triplicates and the average of VCNs of triplicates for each individual condition was calculated. To evaluate the transduction enhancement activity of the tested compounds, average VCNs of cells transduced in the presence of protamine sulfate was set as 1, and enhancement of transduction was expressed as X-fold increase relative to transduction in the presence of protamine sulfate only.

Human CD34+HSC = experiment: Lentiviral SIN vector transduction of CD34+ HSC at MOI 20 with or without 1% DMSO, VCN; type: cell-based; details: 2 h pre-stimulation and 16 h incubation, X-Vivo 20, VCN without DMSO 0.915
Protocol: Cells were transduced in the absence and presence of 1% DMSO.
The transduction process comprised a 2 h pre-stimulation period in presence of 1% DMSO, followed by 16 h incubation of pre-stimulated cells with the gene therapy vector with an MOI 20 in presence of 1% DMSO.

[1] = MOI of 1, 5 μM Silibinin, 5 μM Resveratrol, 1 μM Everolimus, 0,4 μM Midostaurin, 100 μM Nystatin, 3 μM Natamycin

2,3-Dihydro-3-(4-hydroxy-3-methoxyphenyl)-2-(hydroxymethyl)-6-(3,5,7-trihydroxy-4-oxobenzopyran-2-yl)benzodioxin [Silibinin]
transduction efficiency of a target cell, single enhancer (result in words) (target cell): enhances the transduction efficiency
suitability of approved therapeutic compounds as transduction enhancers (result in words) (target cell): efficient transduction enhancers
increase in the efficiency of lentiviral transduction (VCN), fold induction rel. to PS (human CD34-positive HSC; [1]): (factor 4.8) fold

C[C@@H]1[C@H](O)[C@@H](C)/C=C/C=C/C=C/C=C/C=C/C=C/C=C/[C@H](O[C@@H]2O[C@H](C)[C@@H](O)[C@H](N)[C@@H]2O)C[C@@H]2O[C@](O)(C[C@@H](O)C[C@@H](O)[C@H](O)CC[C@@H](O)C[C@@H](O)CC(=O)O[C@H]1C)C[C@H](O)[C@H]2C(=O)O [Amphotericin B]
transduction efficiency of a target cell, single enhancer (result in words) (target cell): enhances the transduction efficiency
suitability of approved therapeutic compounds as transduction enhancers (result in words) (target cell): efficient transduction enhancers
increase in the efficiency of lentiviral transduction (VCN), fold induction rel. to PS (human CD34-positive HSC; [1]): (factor 3) fold
increase in the efficiency of lentiviral transduction (VCN), fold induction rel. to PS (human CD34-positive HSC; MOI of 3, 1 μM Everolimus): (factor 2.2) fold

C[S+](C)[O-] [DMSO, Dimethyl sulfoxide]
vector copy number (VCN) (Human CD34+HSC): 1.16
transduction efficiency of a target cell, single enhancer (result in words) (target cell): enhances the transduction efficiency

CO[C@H]1C[C@@H]2CC[C@@H](C)[C@@](O)(O2)C(=O)C(=O)N2CCCC[C@H]2C(=O)O[C@H]([C@H](C)C[C@@H]2CC[C@@H](OCCO)[C@H](OC)C2)CC(=O)[C@H](C)/C=C(\C)[C@@H](O)[C@@H](OC)C(=O)[C@H](C)C[C@H](C)/C=C/C=C/C=C/1C [Everolimus]
transduction efficiency of a target cell, single enhancer (result in words) (target cell): enhances the transduction efficiency
increase in the efficiency of lentiviral transduction (VCN), fold induction rel. to PS (human CD34-positive HSC; [1]): (factor 13.5) fold
increase in the efficiency of lentiviral transduction (VCN), fold induction rel. to PS (human CD34-positive HSC; MOI of 3, 1 μM Everolimus): (factor 2.5) fold

Nc1nc(F)nc2c1ncn2[C@@H]1O[C@H](CO)[C@@H](O)[C@@H]1O [Fludarabine]
suitability of approved therapeutic compounds as transduction enhancers (result in words) (target cell): efficient transduction enhancers

CO[C@@H]1[C@H](N(C)C(=O)c2ccccc2)C[C@H]2O[C@]1(C)n1c3ccccc3c3c4c(c5c6ccccc6n2c5c31)C(=O)NC4 [Midostaurin]
increase in the efficiency of lentiviral transduction (VCN), fold induction rel. to PS (human CD34-positive HSC; [1]): (factor 4.2) fold

C[C@@H]1C/C=C/C=C/C=C/C=C/[C@H](O[C@@H]2O[C@H](C)[C@@H](O)[C@H](N)[C@@H]2O)C[C@@H]2O[C@](O)(C[C@@H](O)C[C@H]3O[C@@H]3/C=C/C(=O)O1)C[C@H](O)[C@H]2C(=O)O [Natamycin]
suitability of approved therapeutic compounds as transduction enhancers (result in words) (target cell): efficient transduction enhancers

C[C@@H]1[C@H](O)[C@@H](C)/C=C/C=C/CC/C=C/C=C/C=C/C=C/C(O[C@H]2O[C@H](C)[C@@H](O)[C@H](N)[C@@H]2O)CC2O[C@](O)(CC(O)C(O)CCC(O)CC(O)CC(O)CC(=O)O[C@H]1C)CC(O)C2C(=O)O (stereo partly shown) [Nystatin]
transduction efficiency of a target cell, single enhancer (result in words) (target cell): enhances the transduction efficiency
suitability of approved therapeutic compounds as transduction enhancers (result in words) (target cell): efficient transduction enhancers
increase in the efficiency of lentiviral transduction (VCN), fold induction rel. to PS (human CD34-positive HSC; [1]): (factor 2.6) fold

CCCCC[C@H](O)/C=C/[C@H]1[C@H](O)CC(=O)[C@@H]1C/C=C\CCCC(=O)O [Prostaglandin E2]
transduction efficiency of a target cell, single enhancer (result in words) (target cell): enhances the transduction efficiency

— patent US20230220416A1, “NOVEL TR[…] AND USES THEREOF” (priority 2020, published 2023)
